Laboratory results reported in patent publication US8293481B2, “Biomarkers for chronic vascular dysfunction” (Mayo Foundation for Medical Education and Research, priority 2006, dated 2012).

Assays:
[1] = test system: Sprague-Dawley rats, LAD ligation infarct model of CHF; assay: Left ventricular function by transthoracic echocardiography (fractional shortening) in rat infarct model of CHF; assay type: in vivo; details: 2 weeks post-infarction; captopril 2 g/l in drinking water; uninfarcted 56%, placebo 29%
Description: After intubation, rats were ventilated continuously (room air) using a small animal ventilator (Model 683, Harvard Apparatus, Holliston, Mass.). A left lateral thoracotomy incision was made along the 5th intercostal space and after the pericardium was opened, the heart was exteriorized using a retention suture placed at the apex. The left anterior descending coronary artery (LAD) was ligated twice using 6-0 prolene suture (Ethicon, Cornelia, Ga.). After chest closure with running 3-0 vicryl suture (Ethicon), rats were put in a recovery chamber with a heating pad and warming light. The post-operative survival rate reached 80%. […] Rats were fed a standard diet of Teklad rodent feed (Harlan) ad libitum and kept on a 12:12 h light-dark cycle. Rats were sacrificed at designated time intervals of 2 weeks and 4 weeks after surgery. […] Cardiac function was estimated using fractional shortening (FS) obtained from the EDD and ESD in the parasternal long axis view and calculated as FS=((EDD-ESD)/EDD)×100%.

Agt (angiotensinogen) = assay: Real-time PCR gene expression in aorta post MI; assay type: in vivo, rat; details: 4 weeks post-infarction (increased at 2 weeks), FIG. 1
Description: (§1) After intubation, rats were ventilated continuously (room air) using a small animal ventilator (Model 683, Harvard Apparatus, Holliston, Mass.). A left lateral thoracotomy incision was made along the 5th intercostal space and after the pericardium was opened, the heart was exteriorized using a retention suture placed at the apex. The left anterior descending coronary artery (LAD) was ligated twice using 6-0 prolene suture (Ethicon, Cornelia, Ga.). After chest closure with running 3-0 vicryl suture (Ethicon), rats were put in a recovery chamber with a heating pad and warming light. The post-operative survival rate reached 80%. […] Rats were fed a standard diet of Teklad rodent feed (Harlan) ad libitum and kept on a 12:12 h light-dark cycle. Rats were sacrificed at designated time intervals of 2 weeks and 4 weeks after surgery. […] Isolation of total RNA: […] Surrounding peri-adventitial tissues, fat, and endothelium were then carefully cleaned away and removed. The remaining vascular smooth muscle was then frozen with liquid nitrogen, pulverized into fine powder, and resuspended in 600 μl of Buffer RLT with β-ME (10 μl β-ME: 1 ml Buffer RLT, Qiagen, Valencia, Calif.). The lysate was pipetted directly onto a QIAshredder spin column (Qiagen) placed in a 2 ml collection tube and centrifuged for 5 minutes at 14000 rpm, 4° C. The supernatant was transferred to a new microcentrifuge tube and 1 volume of 70% ethanol was added and mixed. The cleared lysate was then transferred to an RNeasy mini-column (Qiagen) placed in a 2 ml collection tube and spun for 15 seconds at ≧10,000 rpm, 4° C. The flow-through was discarded and 700 μl of Buffer RW1 (Qiagen) was added to the RNeasy column. After the column was spun for 15 seconds at ≧10,000 rpm (4° C.), it was transferred into a new 2 ml collection tube, washed, spun twice with 500 μl Buffer RPE (Qiagen), and eluted with 40 μl of RNase-free water using a microcentrifuge (≧10,000 rpm, 4° C.) for 1 minute. Final RNA samples were stored at -20° C. to prevent degradation. Confirmation of microarray result by quantitative real-time PCR: The remaining RNA from the aortic or portal vein RNA sample was quantitatively converted to single stranded cDNA using the High-Capacity cDNA Archive Kit (Applied Biosystems, Foster City, Calif.). Briefly, 50 μl of RNA sample was mixed with 50 μl of 2×RT master mix (10 μl of 10× Reverse Transcription Buffer, 4 μl of 25× dNTPs, 10 μl of 10× random primers, 5 μl of […] Reverse Transcriptase at 50 U/μl, 21 μl of RNase-free H2O) and pipetted into 0.2 ml MICROAMP® PCR Reaction Tubes with Caps (Applied Biosystems, Foster City, Calif.). Reverse transcription was performed using a thermal cycler (Eppendorf Mastercycler gradient) with incubation conditions set at 25° C. for 10 minutes followed by 37° C. for 120 minutes. The synthesized cDNA was then mixed with TAQMAN® Universal PCR Master Mix (2.5 μl of cDNA+47.5 μl of RNase-free H2O+50 μl of Master Mix) and loaded onto 384-Well micro fluid cards for quantitative real-time PCR (TAQMAN® Low Density Arrays, Applied Biosystems). This was done with customer-selected TAQMAN® Gene Expression Assays preloaded into each of the 384 wells. The 7900 HT Gene Expression Micro Fluid Card Configuration 2 (Applied Biosystems) with a total of 24 targets was used; 22 targets were selected to include the results from the microarray study, and the remaining two targets were controls GAPDH and 18S controls. For each cDNA sample, four replicates were analyzed for real-time PCR. After all ports of the Micro Fluidic Card were loaded with cDNA, it was spun for even distribution into the wells using a Sorvall Legend centrifuge (1 minute at 1200 rpm). The array was then run on the Applied Biosystems 7900HT Fast Real-time PCR System, and the data were analyzed using an Applied Biosystems RQ Manager Software (SDS 2.1). […]

[2] = test system: Baat (bile acid-Coenzyme A amino acid N-acyltransferase); assay: Real-time PCR gene expression in aorta post MI; assay type: in vivo, rat; details: 2 weeks post-infarction
Description: as §1

[3] = test system: Cxcl12 (chemokine (C-X-C motif) ligand 12); assay: Real-time PCR gene expression in aorta post MI; assay type: in vivo, rat; details: 4 weeks post-infarction (increased at 2 weeks), FIG. 1
Description: as §1

[4] = test system: Fmr1 (fragile X mental retardation syndrome 1 homolog); assay: Real-time PCR gene expression in aorta post MI; assay type: in vivo, rat; details: 2 weeks post-infarction
Description: as §1

[5] = test system: Gls2 (glutaminase 2 (liver, mitochondrial)); assay: Real-time PCR gene expression in aorta post MI; assay type: in vivo, rat; details: 2 weeks post-infarction
Description: as §1

[6] = test system: IL-1β (interleukin 1 beta); assay: Real-time PCR gene expression in aorta post MI; assay type: in vivo, rat; details: 2 weeks post-infarction
Description: as §1

[7] = test system: MIR16 (membrane interacting protein of RGS16); assay: Real-time PCR gene expression in aorta post MI; assay type: in vivo, rat; details: 4 weeks post-infarction (increased at 2 weeks), FIG. 1
Description: as §1

[8] = test system: Raf1 (v-raf-1 murine leukemia viral oncogene homolog 1); assay: Real-time PCR gene expression in aorta post MI; assay type: in vivo, rat; details: 2 weeks post-infarction
Description: as §1

Rock2 (Rho kinase 2) = assay: Real-time PCR gene expression in aorta post MI; assay type: in vivo, rat; details: 2 weeks post-infarction
Description: as §1

Taok1 (TAO kinase 1) = assay: Real-time PCR gene expression in aorta post MI; assay type: in vivo, rat; details: 2 weeks post-infarction
Description: as §1

C[C@H](CS)C(=O)N1CCC[C@H]1C(=O)O [Captopril, 1-[(2S)-3-mercapto-2-methylpropionyl]-L-proline]
fractional shortening (FS) [1]: 38%
Agt expression, captopril versus placebo (Agt (angiotensinogen)): difference disappeared
Baat expression, placebo or captopril therapy [2]: did not demonstrate any difference
Cxcl12 expression, captopril versus placebo [3]: difference disappeared
Fmr1 expression, placebo or captopril therapy [4]: did not demonstrate any difference
Gls2 expression, placebo or captopril therapy [5]: did not demonstrate any difference
IL1-β expression, placebo or captopril therapy [6]: did not demonstrate any difference
MIR16 expression, captopril versus placebo [7]: difference disappeared
Raf1 expression, placebo or captopril therapy [8]: did not demonstrate any difference
Rock2 expression, placebo or captopril therapy (Rock2 (Rho kinase 2)): did not demonstrate any difference
Taok1 expression, placebo or captopril therapy (Taok1 (TAO kinase 1)): did not demonstrate any difference
